Data taken from US20170216315A1 (priority 2016, published 2017).
Marks after values point to notes of the source that are not given here.

Experiments:
[1] = Feed intake, relative weight of organs and of fat pads; assay type: in vivo, mice; conditions: for Relative weight of abdominal fat pad / Relative weight of epididymal fat pad / Relative weight of heart / Relative weight of kidney / Relative weight of liver / Relative weight of spleen: alcoholic liquid diet, week 4
Method: C-1. The feed intakes of mice were recorded every day (4 mice from each group were randomly picked for recording, and an average of the 4 mice was taken). The changes in the mice body weight were recorded at the last day of every week (i.e., an average of 8 mice from each group), over a four-week period.
(§1) C-4. After “C-3” was completed, the mice were sacrificed. The weights of the mice hearts, livers, kidneys, spleens, and abdominal and epididymal fat pads were measured and recorded; the mice livers were washed with sterilized saline, and then the liver appearances were recorded by a camera. The collected organs and feces were stored at −80° C. for the following analysis (recording, sample collection and storage were conducted for all of the 8 mice from each group).
The average values of daily feed intakes of mice of each group recorded in [Preparation Examples] Besides, the weights of mice organ and fat of each group obtained from [Preparation Examples] C-4 were averaged, respectively, and then the average weights (g) were divided by the average body weights of mice in week 4 from the corresponding group to obtain the relative weights of organs and the relative weights of fat.

[2] = test system: Superoxide dismutase (SOD); assay: Activity of SOD in mouse liver; assay type: in vivo, mice; conditions: for Activity of SOD: liver homogenate, alcoholic liquid diet, 4 weeks
[3] = test system: aspartate aminotransferase (AST); assay: Activity of AST in serum; assay type: in vivo, mice; conditions: EK100 1, 5, 10 mg/kg/day vs EtOH group; p<0.05; FIG. 8
From the text: It has been known that both aspartate aminotransferase (AST) and alanine aminotransferase (ALT) are amino acid metabolic enzymes, which are widely present in the heart, liver, skeletal muscle, kidney and brain. When cells in organs are injured, AST and ALT will be released into the blood. Therefore, the activities of AST and ALT can be used as the injury markers of the above organs to detect organ injuries, wherein the higher activities of AST and ALT represent that organ injuries are more serious. For example, there is much more ALT in the liver. A higher activity of ALT in the liver would indicate a more serious injury.
To understand the effects of alcohol consumption and ergostatrien-3β-ol intake on the injury conditions of mice organs, mouse serum samples of each group provided in [Preparation Examples] C-2 (200 μl per group) were placed into automatic dry-biochemistry analyzer (Arkray, Inc., Japan, Spotechem™ EZ, SP-4430) with AST/ALT expert analytic test paper (Arkray, Inc., Japan, Spotechem™ II) to detect the activities of AST and ALT.

male C57BL/6 mice [4] = assay: TEAC value of liver homogenate; conditions: for TEAC value: liver homogenate, alcoholic liquid diet, 4 weeks
male C57BL/6 mice [5] = assay: Amounts of TAG and TC in serum; assay type: in vivo; conditions: EK100 1, 5, 10 mg/kg/day vs EtOH group; p<0.05; FIG. 2A
male C57BL/6 mice [6] = assay: Appearance and H&E staining of mouse liver; assay type: in vivo; conditions: EK100 1, 5, 10 mg/kg/day vs EtOH group
Method: as §1
The photographs of the mouse liver appearance of each group recorded in [Preparation Examples]
Additionally, the photographs of stained mouse liver of each group recorded in [Preparation Examples]

IL-1β = assay: Concentration of IL-1β in liver (ELISA); assay type: in vivo, mice; conditions: EK100 1, 5, 10 mg/kg/day vs EtOH group; p<0.05; FIG. 9B
From the text: D-3 were taken and diluted with Calibrator Diluent RD 5-17 to ⅓ of the original concentration respectively, and then a Quantikine® Rat TNF-α or a Quantikine® Rat IL-1β commercial kit (purchased from R&D Systems company, United States) was used for the Enzyme-linked immune-sorption assay (ELISA) to measure the amounts of tumor necrosis factor-alpha (TNF-α) and interleukin-1β (IL-1β) therein. […]

[7] = EK100 1, 5, 10 mg/kg/day vs EtOH group, p<0.05

For `CC(C)[C@@H](C)/C=C/[C@@H](C)[C@H]1CC[C@H]2C3=CCC4C[C@@H](O)CC[C@]4(C)C3=CC[C@]12C` (stereo partly drawn) [EK100], the “Relative weight of epididymal fat pad compared to EtOH” value [1, 7] was “significantly lower”, the “Relative weight of abdominal fat pad” value ([1]; EK100_1X: 1 mg/kg/day gavage) was 0.21 ± 0.03^c g/100 g of mice body weight and the “Relative weight of epididymal fat pad” value ([1]; EK100_1X: 1 mg/kg/day gavage) was 1.30 ± 0.11^c g/100 g of mice body weight. The “Relative weight of heart” value ([1]; EK100_1X: 1 mg/kg/day gavage) was 0.53 ± 0.03^bc g/100 g of mice body weight, the “Relative weight of kidney” value ([1]; EK100_1X: 1 mg/kg/day gavage) was 1.33 ± 0.04^a g/100 g of mice body weight and the “Relative weight of liver” value ([1]; EK100_1X: 1 mg/kg/day gavage) was 4.50 ± 0.14^a g/100 g of mice body weight. For the same compound, the “Relative weight of spleen” value ([1]; EK100_1X: 1 mg/kg/day gavage) was 0.53 ± 0.03^a g/100 g of mice body weight, the “Relative weight of abdominal fat pad” value ([1]; EK100_5X: 5 mg/kg/day gavage) was 0.41 ± 0.06^b g/100 g of mice body weight and the “Relative weight of epididymal fat pad” value ([1]; EK100_5X: 5 mg/kg/day gavage) was 1.42 ± 0.14^c g/100 g of mice body weight. The “Relative weight of heart” value ([1]; EK100_5X: 5 mg/kg/day gavage) was 0.57 ± 0.04^ab g/100 g of mice body weight, the “Relative weight of kidney” value ([1]; EK100_5X: 5 mg/kg/day gavage) was 1.28 ± 0.05^a g/100 g of mice body weight and the “Relative weight of liver” value ([1]; EK100_5X: 5 mg/kg/day gavage) was 4.33 ± 0.20^a g/100 g of mice body weight. For the same compound, the “Relative weight of spleen” value ([1]; EK100_5X: 5 mg/kg/day gavage) was 0.55 ± 0.04^a g/100 g of mice body weight, the “Relative weight of abdominal fat pad” value ([1]; EK100_10X: 10 mg/kg/day gavage) was 0.40 ± 0.04^b g/100 g of mice body weight and the “Relative weight of epididymal fat pad” value ([1]; EK100_10X: 10 mg/kg/day gavage) was 1.62 ± 0.07^c g/100 g of mice body weight. The “Relative weight of heart” value ([1]; EK100_10X: 10 mg/kg/day gavage) was 0.51 ± 0.01^bc g/100 g of mice body weight, the “Relative weight of kidney” value ([1]; EK100_10X: 10 mg/kg/day gavage) was 1.14 ± 0.02^b g/100 g of mice body weight and the “Relative weight of liver” value ([1]; EK100_10X: 10 mg/kg/day gavage) was 4.48 ± 0.10^a g/100 g of mice body weight. For the same compound, the “Relative weight of spleen” value ([1]; EK100_10X: 10 mg/kg/day gavage) was 0.55 ± 0.02^a g/100 g of mice body weight, the “Activity of SOD in liver compared to EtOH” value ([2]; EK100 10 mg/kg/day (EK100_10X) vs EtOH group, p<0.05) was “significantly increased” and the “Activity of SOD” value ([2]; EK100_1X: 1 mg/kg/day gavage) was 77.56 ± 3.33^c munit/mg protein. For the same compound, the “Activity of SOD” value ([2]; EK100_5X: 5 mg/kg/day gavage) was 90.40 ± 6.16^b munit/mg protein, the “Activity of SOD” value ([2]; EK100_10X: 10 mg/kg/day gavage) was 118.47 ± 4.64^a munit/mg protein and the “Activity of AST in serum compared to EtOH” value [3] was “significantly decreased”. The “TEAC value of liver compared to EtOH” value (male C57BL/6 mice [4]; [7]) was “significantly increased”, the TEAC value (male C57BL/6 mice [4]; EK100_1X: 1 mg/kg/day gavage) was 69.18 ± 2.77^a nmol/mg protein and the TEAC value (male C57BL/6 mice [4]; EK100_5X: 5 mg/kg/day gavage) was 75.23 ± 2.61^a nmol/mg protein. The TEAC value (male C57BL/6 mice [4]; EK100_10X: 10 mg/kg/day gavage) was 70.50 ± 2.25^a nmol/mg protein, the “Amount of TAG in serum compared to EtOH” value (male C57BL/6 mice [5]) was “significantly decreased” and the “Amount of TC in serum compared to EtOH” value (male C57BL/6 mice [5]) was “significantly decreased”. The “Number of fat vacuoles in liver tissue compared to EtOH” value (male C57BL/6 mice [6]; H&E staining, FIGS. 7A-7E) was “markedly decreased”, the “Whitening phenomenon of liver compared to EtOH” value (male C57BL/6 mice [6]; liver appearance, FIGS. 6A-6E) was “decreased” and the “Concentration of IL-1β in liver compared to EtOH” value (IL-1β) was “significantly decreased”.
